Laboratory results from US20040138230A1, “Heterocyclic substituted piperazines for the treatment of schizophrenia” (priority 2002, published 2004).

Legend:
dopamine D2 receptor = dopamine D2 receptor (Homo sapiens, UniProt P14416)
[1] = target: serotonin 2A (5HT2A) receptor (Homo sapiens, UniProt P28223)
Chain of serotonin 2A (5HT2A) receptor (P28223 whole entry): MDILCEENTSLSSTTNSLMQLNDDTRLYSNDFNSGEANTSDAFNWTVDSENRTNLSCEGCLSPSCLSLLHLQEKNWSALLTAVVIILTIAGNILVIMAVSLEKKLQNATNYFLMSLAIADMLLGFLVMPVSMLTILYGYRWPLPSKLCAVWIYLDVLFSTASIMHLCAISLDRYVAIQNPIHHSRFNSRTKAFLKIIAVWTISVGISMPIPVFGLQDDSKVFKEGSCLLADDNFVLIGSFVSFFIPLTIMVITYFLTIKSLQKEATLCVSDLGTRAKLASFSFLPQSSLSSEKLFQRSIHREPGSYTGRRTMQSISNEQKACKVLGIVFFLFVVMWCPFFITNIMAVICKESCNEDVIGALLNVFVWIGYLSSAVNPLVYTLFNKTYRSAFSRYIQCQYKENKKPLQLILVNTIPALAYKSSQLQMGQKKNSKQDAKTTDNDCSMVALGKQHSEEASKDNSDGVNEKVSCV
Text: The ability of the novel compounds of this invention to bind to the dopamine D2 and serotonin 2A (5HT2A) receptors can be determined using conventional radioligand receptor binding assays. All receptors can be heterologously expressed in cell lines and experiments conducted in membrane preparations from the cell lines using procedures outlined below. IC50 concentrations can be determined by nonlinear regression of concentration-dependent reduction in specific binding. The Cheng-Prussoff equation can be used to convert the IC50 to Ki concentrations.
[^3H]Ketanserin binding to Swiss-h5HT2A cell membranes can be carried out in 250 μl of 50 mM Tris-HCl buffer pH 7.4. Duplicate samples containing (in order of addition) test compounds, 1.0 nM [^3H]ketanserin, and approximately 75 μg protein are incubated for 120 minutes at room temperature. Bound radioligand is separated by rapid filtration under reduced pressure through Whatman GF/B glass fiber filters previously treated with 0.3% polyethyleneimine. Radioactivity retained on the filter is determined by liquid scintillation spectrophotometry.

Chain of dopamine D2 receptor (P14416 whole entry): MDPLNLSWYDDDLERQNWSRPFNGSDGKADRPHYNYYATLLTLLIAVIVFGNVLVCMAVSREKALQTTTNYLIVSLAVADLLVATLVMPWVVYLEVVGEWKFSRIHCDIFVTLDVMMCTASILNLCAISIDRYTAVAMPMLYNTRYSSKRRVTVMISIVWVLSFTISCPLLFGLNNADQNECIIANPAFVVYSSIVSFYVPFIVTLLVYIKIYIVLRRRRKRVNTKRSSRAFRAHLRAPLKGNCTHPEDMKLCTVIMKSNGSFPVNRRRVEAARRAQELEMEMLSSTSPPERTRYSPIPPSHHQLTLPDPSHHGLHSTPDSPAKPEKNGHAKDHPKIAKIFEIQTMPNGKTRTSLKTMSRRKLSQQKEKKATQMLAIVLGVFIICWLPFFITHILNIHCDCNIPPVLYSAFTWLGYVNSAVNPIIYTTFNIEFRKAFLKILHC

| Compound | Ki (dopamine D2 receptor) [nM] | Ki [1] [nM] | melting point [°C] |
| --- | --- | --- | --- |
| COc1cccc2c(N3CCN(CCc4cc(C)c5c(c4)C(C)(C)CC(=O)N5)CC3)nsc12 [Example 31, 6-{2-[4-(7-METHOXY-BENZO[D]ISOTHIAZOL-3-YL)-PIPERAZIN-1-YL]-ETHYL}-4,4,8-TRIMETHYL-3,4-DIHYDRO-1H-QUINOLIN-2-ONE] | 1 | 2 |  |
| CC1(C)Cc2cc(CCN3CCN(c4noc5ccccc45)CC3)ccc2NC1=O [Example 8, 6-[2-(4-BENZO[D]ISOXAZOL-3-YL-PIPERAZIN-1-YL)-ETHYL]-3,3-DIMETHYL-3,4-DIHYDRO-1H-QUINOLIN-2-ONE] | 7 | 5 |  |
| CC1Cc2cc(CCCN3CCN(c4noc5ccccc45)CC3)ccc2NC1=O (stereo not shown) [Example 60, 6-[3-(4-BENZO[D]ISOXAZOL-3-YL-PIPERAZIN-1-YL)-PROPYL]-3-METHYL-3,4-DIHYDRO-1H-QUINOLIN-2-ONE] |  |  | 185 to 187 |
| Cc1c(Cl)c(CCN2CCN(c3nsc4ccccc34)CC2)cc2c1NC(=O)CC2(C)C [Example 23, 6-[2-(4-BENZO[D]ISOTHIAZOL-3-YL-PIPERAZIN-1-YL)-ETHYL]-7-CHLORO-4,4,8-TRIMETHYL-3,4-DIHYDRO-1H-QUINOLIN-2-ONE METHANESULFONATE] | 0.9 | 1 |  |
| CC1Cc2cc(CCCN3CCN(c4nsc5ccccc45)CC3)ccc2NC1=O (stereo not shown) [Example 59, 6-[3-(4-BENZO[D]ISOTHIAZOL-3-YL-PIPERAZIN-1-YL)-PROPYL]-3-METHYL-3,4-DIHYDRO-1H-QUINOLIN-2-ONE] |  |  | 212 |
| CN1Cc2c(c3cc(CCN4CCN(c5nsc6ccccc56)CC4)ccc3[nH]c2=O)C1 [Example 173, 8-[2-(4-BENZO[D]ISOTHIAZOL-3-YL-PIPERAZIN-1-YL)-ETHYL]-2-METHYL-1,2,3,5-TETRAHYDRO-PYRROLO[3,4-C]QUINOLIN-4-ONE] |  |  | 205 to 207 |
| CN1Cc2c(c3cc(CCCN4CCN(c5nsc6ccccc56)CC4)ccc3[nH]c2=O)C1 [Example 172, 8-[3-(4-BENZO[D]ISOTHIAZOL-3-YL-PIPERAZIN-1-YL)-PROPYL]-2-METHYL-1,2,3,5-TETRAHYDRO-PYRROLO[3,4-C]QUINOLIN-4-ONE] |  |  | 206 to 208 |
